In paper PMC10924921, “Mi-2β promotes immune evasion in melanoma by activating EZH2 methylation” (Nature Communications, 2024):

Legend:
Experiment in all cases: biochemical
Set-up in all cases: KINOMEscan active-site competition binding panel (468 kinase assays), per cent of control at 1000 nM
Settings in all cases: KINOMEscan per cent of control (binding competition); read-out: Percent Control
[1] = molecular target: EGFR(L747-E749del, A750P) (Homo sapiens, UniProt P00533, A750P/DEL747-749)
Description: (§1) Figure S7 / Percent Control

TIE2 = molecular target: T1, TIE2 (Homo sapiens, UniProt Q02763)
T1 construct: gene TEK
T1 sequence (Q02763 whole entry): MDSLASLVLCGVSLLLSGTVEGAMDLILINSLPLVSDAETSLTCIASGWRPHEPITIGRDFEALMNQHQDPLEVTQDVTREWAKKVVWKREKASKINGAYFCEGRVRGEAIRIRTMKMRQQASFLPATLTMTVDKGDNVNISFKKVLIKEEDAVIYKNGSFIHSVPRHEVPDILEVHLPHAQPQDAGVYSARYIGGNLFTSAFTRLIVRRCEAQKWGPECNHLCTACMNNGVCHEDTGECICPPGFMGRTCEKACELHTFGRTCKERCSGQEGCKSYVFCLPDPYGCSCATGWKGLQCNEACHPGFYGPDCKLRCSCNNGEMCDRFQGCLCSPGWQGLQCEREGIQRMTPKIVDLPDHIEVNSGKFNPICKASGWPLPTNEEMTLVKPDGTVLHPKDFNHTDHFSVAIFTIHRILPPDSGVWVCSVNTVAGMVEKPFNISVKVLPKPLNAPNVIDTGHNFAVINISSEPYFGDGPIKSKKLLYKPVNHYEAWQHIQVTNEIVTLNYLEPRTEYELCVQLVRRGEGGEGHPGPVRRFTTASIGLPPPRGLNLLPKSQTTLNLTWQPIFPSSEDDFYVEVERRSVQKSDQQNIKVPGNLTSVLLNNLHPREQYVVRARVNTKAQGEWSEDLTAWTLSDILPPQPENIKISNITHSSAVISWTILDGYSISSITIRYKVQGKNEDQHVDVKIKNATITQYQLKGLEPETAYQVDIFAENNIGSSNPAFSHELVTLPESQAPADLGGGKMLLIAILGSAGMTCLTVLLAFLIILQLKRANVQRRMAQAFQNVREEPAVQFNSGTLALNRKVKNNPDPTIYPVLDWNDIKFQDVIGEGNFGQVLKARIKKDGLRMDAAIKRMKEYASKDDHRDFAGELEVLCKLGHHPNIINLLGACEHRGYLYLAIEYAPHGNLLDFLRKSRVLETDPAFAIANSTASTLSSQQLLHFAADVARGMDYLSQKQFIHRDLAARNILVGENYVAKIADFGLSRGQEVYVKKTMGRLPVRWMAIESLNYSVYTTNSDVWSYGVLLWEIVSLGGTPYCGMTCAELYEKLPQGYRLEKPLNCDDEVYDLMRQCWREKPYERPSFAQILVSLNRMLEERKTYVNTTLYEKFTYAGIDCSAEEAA
Description: as §1

TRKC = molecular target: T2, TRKC (Homo sapiens, UniProt Q16288)
T2 construct: gene NTRK3
T2 sequence (Q16288 whole entry): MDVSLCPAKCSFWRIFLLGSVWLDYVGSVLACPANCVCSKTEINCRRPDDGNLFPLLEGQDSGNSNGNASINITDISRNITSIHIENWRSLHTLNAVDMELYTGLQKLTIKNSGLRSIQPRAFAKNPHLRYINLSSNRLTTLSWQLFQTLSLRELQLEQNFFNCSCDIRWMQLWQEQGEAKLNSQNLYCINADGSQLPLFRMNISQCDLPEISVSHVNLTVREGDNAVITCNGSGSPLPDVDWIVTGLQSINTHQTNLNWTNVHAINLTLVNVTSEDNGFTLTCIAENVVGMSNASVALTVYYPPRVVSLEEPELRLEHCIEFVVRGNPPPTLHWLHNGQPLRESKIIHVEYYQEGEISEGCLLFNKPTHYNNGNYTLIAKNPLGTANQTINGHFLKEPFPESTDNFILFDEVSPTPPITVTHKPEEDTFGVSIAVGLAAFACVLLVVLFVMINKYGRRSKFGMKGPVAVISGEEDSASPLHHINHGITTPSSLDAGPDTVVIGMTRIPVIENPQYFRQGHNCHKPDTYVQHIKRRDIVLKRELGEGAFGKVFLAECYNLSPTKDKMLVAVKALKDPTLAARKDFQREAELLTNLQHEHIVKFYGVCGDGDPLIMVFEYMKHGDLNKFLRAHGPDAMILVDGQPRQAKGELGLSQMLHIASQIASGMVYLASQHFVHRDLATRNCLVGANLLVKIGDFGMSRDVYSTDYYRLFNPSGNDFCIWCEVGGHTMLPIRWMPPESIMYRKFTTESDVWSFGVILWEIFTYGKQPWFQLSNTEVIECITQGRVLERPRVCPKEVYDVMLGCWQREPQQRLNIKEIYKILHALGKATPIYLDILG
Description: as §1

LRRK2 = LRRK2 (Homo sapiens, UniProt Q5S007)
Description: as §1

CSF1R-autoinhibited = CSF1R-autoinhibited (Homo sapiens, UniProt P07333)
Description: as §1

DYRK2 = DYRK2 (Homo sapiens, UniProt Q92630)
Description: as §1

AKT1 = AKT1 (Homo sapiens, UniProt P31749)
Description: as §1

VRK2 = VRK2 (Homo sapiens, UniProt Q86Y07)
Description: as §1

NEK1 = NEK1 (Homo sapiens, UniProt Q96PY6)
Chain of NEK1 (Q96PY6 whole entry): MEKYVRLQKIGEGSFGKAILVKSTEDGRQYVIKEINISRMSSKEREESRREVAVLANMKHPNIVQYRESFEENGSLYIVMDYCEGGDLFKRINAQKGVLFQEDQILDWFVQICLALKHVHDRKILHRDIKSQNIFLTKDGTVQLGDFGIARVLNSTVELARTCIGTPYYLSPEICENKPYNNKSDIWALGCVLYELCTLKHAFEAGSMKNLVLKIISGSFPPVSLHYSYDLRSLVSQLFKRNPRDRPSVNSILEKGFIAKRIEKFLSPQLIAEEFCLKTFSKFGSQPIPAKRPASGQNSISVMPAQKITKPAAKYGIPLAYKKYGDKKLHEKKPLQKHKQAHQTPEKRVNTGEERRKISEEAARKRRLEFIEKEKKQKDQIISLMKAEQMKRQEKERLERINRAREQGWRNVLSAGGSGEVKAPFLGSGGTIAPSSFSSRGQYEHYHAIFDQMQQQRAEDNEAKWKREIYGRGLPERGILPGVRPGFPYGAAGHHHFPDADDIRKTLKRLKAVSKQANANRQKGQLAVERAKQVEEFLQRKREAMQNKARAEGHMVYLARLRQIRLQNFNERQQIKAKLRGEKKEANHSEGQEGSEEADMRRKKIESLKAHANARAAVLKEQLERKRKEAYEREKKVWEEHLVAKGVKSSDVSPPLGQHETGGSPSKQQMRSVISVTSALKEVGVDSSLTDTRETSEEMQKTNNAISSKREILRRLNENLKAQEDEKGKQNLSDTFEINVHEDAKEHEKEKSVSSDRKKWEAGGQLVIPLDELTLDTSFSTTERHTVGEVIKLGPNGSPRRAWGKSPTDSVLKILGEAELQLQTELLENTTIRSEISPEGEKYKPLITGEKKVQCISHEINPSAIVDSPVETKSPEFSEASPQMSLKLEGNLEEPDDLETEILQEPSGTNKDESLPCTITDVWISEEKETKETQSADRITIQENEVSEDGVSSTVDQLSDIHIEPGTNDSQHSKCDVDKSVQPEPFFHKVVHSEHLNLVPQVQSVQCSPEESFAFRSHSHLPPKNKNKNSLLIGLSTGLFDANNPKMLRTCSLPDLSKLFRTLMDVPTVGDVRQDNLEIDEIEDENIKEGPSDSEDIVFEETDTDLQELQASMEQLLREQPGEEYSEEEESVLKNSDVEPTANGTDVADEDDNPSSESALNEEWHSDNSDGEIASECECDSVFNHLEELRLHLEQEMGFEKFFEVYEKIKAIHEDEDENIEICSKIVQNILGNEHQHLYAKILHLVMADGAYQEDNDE
Description: as §1

NEK11 = NEK11 (Homo sapiens, UniProt Q8NG66)
Description: as §1

PIK3CA(H1047L) = PIK3CA(H1047L) (Homo sapiens, UniProt P42336, H1047L)
Chain of PIK3CA(H1047L) (P42336 whole entry H1047L): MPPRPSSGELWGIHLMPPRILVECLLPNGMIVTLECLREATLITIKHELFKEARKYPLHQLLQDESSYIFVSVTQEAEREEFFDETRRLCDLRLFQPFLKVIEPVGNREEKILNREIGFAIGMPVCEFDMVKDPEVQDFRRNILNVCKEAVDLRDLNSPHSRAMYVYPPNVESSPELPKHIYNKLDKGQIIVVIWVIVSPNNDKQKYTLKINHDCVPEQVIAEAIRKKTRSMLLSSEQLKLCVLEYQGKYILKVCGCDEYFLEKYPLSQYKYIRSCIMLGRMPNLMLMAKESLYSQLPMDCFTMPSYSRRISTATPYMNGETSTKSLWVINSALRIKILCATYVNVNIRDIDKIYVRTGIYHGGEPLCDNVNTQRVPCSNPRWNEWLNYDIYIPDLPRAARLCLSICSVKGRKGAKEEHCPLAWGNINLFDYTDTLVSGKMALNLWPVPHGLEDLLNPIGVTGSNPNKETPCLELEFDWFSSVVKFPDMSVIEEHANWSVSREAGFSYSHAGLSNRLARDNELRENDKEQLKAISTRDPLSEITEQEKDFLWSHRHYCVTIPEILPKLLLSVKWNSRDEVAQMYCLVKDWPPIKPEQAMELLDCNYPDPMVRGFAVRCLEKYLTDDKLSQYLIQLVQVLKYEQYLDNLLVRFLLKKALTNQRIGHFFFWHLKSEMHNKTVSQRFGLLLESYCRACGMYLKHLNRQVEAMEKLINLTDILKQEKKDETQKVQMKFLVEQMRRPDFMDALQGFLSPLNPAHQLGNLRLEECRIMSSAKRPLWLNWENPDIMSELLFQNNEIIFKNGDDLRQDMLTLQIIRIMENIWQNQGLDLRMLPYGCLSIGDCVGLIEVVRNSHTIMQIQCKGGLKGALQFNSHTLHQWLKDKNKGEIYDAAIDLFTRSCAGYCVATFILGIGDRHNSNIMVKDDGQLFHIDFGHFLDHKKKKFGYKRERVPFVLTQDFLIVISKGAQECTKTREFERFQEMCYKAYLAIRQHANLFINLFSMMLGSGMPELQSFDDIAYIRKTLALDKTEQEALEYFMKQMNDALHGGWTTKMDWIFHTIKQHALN
Description: as §1

RIOK3 = RIOK3 (Homo sapiens, UniProt O14730)
Chain of RIOK3 (O14730 whole entry): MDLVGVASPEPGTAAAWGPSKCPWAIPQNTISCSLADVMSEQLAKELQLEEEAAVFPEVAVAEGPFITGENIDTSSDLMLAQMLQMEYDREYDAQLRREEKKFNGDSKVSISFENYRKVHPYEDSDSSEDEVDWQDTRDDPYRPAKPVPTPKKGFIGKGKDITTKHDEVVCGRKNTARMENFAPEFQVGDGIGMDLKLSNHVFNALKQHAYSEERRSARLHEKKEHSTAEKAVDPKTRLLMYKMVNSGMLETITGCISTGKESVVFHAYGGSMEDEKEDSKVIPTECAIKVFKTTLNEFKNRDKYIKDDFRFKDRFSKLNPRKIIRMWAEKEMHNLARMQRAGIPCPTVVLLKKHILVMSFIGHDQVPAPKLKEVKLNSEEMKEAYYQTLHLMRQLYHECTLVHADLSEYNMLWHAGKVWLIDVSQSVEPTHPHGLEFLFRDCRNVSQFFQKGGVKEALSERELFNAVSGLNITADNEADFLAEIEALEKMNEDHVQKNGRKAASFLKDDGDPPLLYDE
Description: as §1

ALK(L1196M) = ALK(L1196M) (Homo sapiens, UniProt Q9UM73, L1196M)
Description: as §1

[2] = molecular target: T3, ABL1(H396P)-nonphosphorylated (Homo sapiens, UniProt P00519, H396P)
T3 construct: nonphosphorylated
Description: as §1

TRPM6 = TRPM6 (Homo sapiens, UniProt Q9BX84)
Description: as §1

PIK3CA(H1047Y) = PIK3CA(H1047Y) (Homo sapiens, UniProt P42336, H1047Y)
Chain of PIK3CA(H1047Y) (P42336 whole entry H1047Y): as the sequence (P42336 whole entry H1047L) above, with L1047Y counted along it
Description: as §1

PLK1 = PLK1 (Homo sapiens, UniProt P53350)
Description: as §1

GRK7 = GRK7 (Homo sapiens, UniProt Q8WTQ7)
Description: as §1

MST1 = molecular target: T4, MST1 (Homo sapiens, UniProt Q13043)
T4 construct: gene STK4
Description: as §1

CAMKK1 = CAMKK1 (Homo sapiens, UniProt Q8N5S9)
Description: as §1

RET(V804L) = RET(V804L) (Homo sapiens, UniProt P07949, V804L)
Description: as §1

PLK2 = PLK2 (Homo sapiens, UniProt Q9NYY3)
Description: as §1

AMPK-alpha2 = molecular target: T5, AMPK-alpha2 (Homo sapiens, UniProt P54646)
T5 construct: gene PRKAA2
Description: as §1

CIT = CIT (Homo sapiens, UniProt O14578)
Description: as §1

## Cn1c(=O)[nH]c2ccc(-c3cccc(C(=O)NC4CCn5ccnc5C4)c3)cc21 (stereo not drawn) [Z36-MP5]
[1]
  remaining binding at 1 µM: 90%
TIE2
  remaining binding at 1 µM: 58%
TRKC
  remaining binding at 1 µM: 53%
LRRK2
  remaining binding at 1 µM: 71%
CSF1R-autoinhibited
  remaining binding at 1 µM: 54%
DYRK2
  remaining binding at 1 µM: 84%
AKT1
  remaining binding at 1 µM: 95%
VRK2
  remaining binding at 1 µM: 72%
NEK1
  remaining binding at 1 µM: 81%
NEK11
  remaining binding at 1 µM: 33%
PIK3CA(H1047L)
  remaining binding at 1 µM: 90%
RIOK3
  remaining binding at 1 µM: 100%
ALK(L1196M)
  remaining binding at 1 µM: 78%
[2]
  remaining binding at 1 µM: 69%
TRPM6
  remaining binding at 1 µM: 90%
PIK3CA(H1047Y)
  remaining binding at 1 µM: 91%
PLK1
  remaining binding at 1 µM: 70%
GRK7
  remaining binding at 1 µM: 90%
MST1
  remaining binding at 1 µM: 84%
CAMKK1
  remaining binding at 1 µM: 39%
RET(V804L)
  remaining binding at 1 µM: 75%
PLK2
  remaining binding at 1 µM: 55%
AMPK-alpha2
  remaining binding at 1 µM: 93%
CIT
  remaining binding at 1 µM: 76%
